Assay results from patent publication US20210009564A1, “CALPAIN MODULATORS AND THERAPEUTIC USES THEREOF” (BLADE THERAPERTICS, INC., priority 2018, published 2021).

Key:
[1] = target: T1, Human Calpain 1/NS1 (Homo sapiens, UniProt P07384); test: Calpain inhibition, continuous fluorescence (FRET substrate) assay, calpain 1; format: biochemical; conditions: SensoLyte 520 FRET substrate, 25C
T1 sequence (P07384 1-714): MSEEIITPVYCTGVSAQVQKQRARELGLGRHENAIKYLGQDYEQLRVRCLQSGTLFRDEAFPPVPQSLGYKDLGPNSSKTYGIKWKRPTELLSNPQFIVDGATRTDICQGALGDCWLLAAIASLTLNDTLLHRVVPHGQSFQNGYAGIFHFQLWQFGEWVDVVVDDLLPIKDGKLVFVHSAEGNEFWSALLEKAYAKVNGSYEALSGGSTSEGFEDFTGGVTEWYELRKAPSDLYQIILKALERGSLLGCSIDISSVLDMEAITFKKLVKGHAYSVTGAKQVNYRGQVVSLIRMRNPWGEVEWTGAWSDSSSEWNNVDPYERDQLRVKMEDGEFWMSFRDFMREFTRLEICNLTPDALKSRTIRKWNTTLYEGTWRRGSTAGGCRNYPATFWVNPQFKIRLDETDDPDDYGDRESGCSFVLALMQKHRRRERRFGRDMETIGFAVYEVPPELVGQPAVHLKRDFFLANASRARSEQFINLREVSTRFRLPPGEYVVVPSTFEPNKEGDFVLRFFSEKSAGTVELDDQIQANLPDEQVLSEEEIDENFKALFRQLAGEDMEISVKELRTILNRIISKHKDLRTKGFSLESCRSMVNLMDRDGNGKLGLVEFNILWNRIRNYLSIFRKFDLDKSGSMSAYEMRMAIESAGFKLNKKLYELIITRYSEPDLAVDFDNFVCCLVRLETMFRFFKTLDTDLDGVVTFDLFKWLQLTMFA
T1 sequence (P04632 1-268 partner): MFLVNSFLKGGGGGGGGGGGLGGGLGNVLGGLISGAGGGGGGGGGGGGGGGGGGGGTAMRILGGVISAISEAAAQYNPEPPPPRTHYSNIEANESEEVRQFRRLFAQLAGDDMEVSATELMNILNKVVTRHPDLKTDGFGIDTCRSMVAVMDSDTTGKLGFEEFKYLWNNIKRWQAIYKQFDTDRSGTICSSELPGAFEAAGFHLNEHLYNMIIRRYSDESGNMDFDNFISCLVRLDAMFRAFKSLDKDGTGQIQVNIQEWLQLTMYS
Experimental: (§1) Calpain 1, 2, and 9 activity and inhibition thereof was assessed by means of a continuous fluorescence assay. The SensoLyte 520 Calpain substrate (Anaspec Inc) was optimized for detecting calpain activity. This substrate contains an internally quenched 5-FAM/QXLTM 520 FRET pair. Calpains 1, 2, and 9 cleave the FRET substrate into two separate fragments resulting in an increase of 5-FAM fluorescence that is proportional to calpain activity Assays were typically setup in black 384-well plates using automated liquid handling as follows. Calpain assay base buffer typically contains 50 mM Tris, pH 7.5, 100 mM NaCl and 1 mM DTT. Inhibitors were serially diluted in DMSO and used to setup 2× mixtures with calpains in the aforementioned buffer. After incubation at ambient temperature (25C), the reaction was initiated by adding a 2× mix of the fluorescent peptide substrate and CaCl2) (required for in-situ calpain activation) in the same buffer. Reaction progress curve data were typically collected for 10 min using excitation/emission wavelengths of 490 nm/520 nm on SpectraMax i3× or the FLIPR-Tetra plate readers (Molecular Devices Inc). Reaction rates were calculated from progress curve slopes typically over 1-5 min. Dose response curves (rate vs. log inhibitor concentration) were typically fit to a 4-parameter logistic function to extract IC50 values.

[2] = target: T2, Human Calpain 2/NS1 (Homo sapiens, UniProt P17655); test: Calpain inhibition, continuous fluorescence (FRET substrate) assay, calpain 2; format: biochemical; conditions: SensoLyte 520 FRET substrate, 25C
T2 sequence (P17655 1-700): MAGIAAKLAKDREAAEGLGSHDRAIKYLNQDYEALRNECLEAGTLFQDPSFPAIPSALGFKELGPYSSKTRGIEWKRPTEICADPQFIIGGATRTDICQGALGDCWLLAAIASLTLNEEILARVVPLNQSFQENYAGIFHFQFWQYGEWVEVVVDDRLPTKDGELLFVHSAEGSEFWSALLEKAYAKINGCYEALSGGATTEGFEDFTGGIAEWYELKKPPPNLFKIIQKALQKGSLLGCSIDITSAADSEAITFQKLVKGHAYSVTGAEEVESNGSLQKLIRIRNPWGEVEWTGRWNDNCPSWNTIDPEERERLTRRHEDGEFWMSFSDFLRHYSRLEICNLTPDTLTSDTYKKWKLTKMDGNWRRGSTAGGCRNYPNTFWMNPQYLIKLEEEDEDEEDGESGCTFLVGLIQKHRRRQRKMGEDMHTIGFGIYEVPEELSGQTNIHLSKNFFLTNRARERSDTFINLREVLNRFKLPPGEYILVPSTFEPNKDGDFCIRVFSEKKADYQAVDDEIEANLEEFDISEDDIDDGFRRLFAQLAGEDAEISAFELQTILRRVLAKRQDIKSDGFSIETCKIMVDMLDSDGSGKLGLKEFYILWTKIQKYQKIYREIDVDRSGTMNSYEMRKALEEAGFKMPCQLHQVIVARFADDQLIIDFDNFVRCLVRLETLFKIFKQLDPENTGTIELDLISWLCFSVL
T2 sequence (P04632 1-268 partner): T1 sequence (P04632 1-268 partner)
Experimental: as §1

[3] = target: T3, Human Calpain 9/NS1 (Homo sapiens, UniProt O14815); test: Calpain inhibition, continuous fluorescence (FRET substrate) assay, calpain 9; format: biochemical; conditions: SensoLyte 520 FRET substrate, 25C
T3 sequence (O14815 1-690): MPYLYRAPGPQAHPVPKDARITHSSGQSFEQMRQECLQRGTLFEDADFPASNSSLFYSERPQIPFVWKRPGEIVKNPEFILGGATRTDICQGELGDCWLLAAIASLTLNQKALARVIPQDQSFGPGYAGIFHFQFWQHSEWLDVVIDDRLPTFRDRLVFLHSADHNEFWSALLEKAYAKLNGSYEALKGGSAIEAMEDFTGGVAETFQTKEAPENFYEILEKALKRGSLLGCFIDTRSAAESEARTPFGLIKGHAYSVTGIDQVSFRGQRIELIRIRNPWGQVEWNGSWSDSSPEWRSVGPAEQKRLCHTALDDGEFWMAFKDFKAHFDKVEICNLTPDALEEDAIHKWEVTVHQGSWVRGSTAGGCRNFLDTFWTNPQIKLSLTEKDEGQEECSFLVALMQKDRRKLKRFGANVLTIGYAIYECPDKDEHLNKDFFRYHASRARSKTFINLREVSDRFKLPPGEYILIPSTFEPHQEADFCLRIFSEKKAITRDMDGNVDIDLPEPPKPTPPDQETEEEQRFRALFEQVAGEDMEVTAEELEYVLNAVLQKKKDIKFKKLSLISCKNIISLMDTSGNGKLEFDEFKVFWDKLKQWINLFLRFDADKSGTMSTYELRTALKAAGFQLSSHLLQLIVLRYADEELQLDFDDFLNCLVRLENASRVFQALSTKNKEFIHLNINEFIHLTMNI
T3 sequence (P04632 1-268 partner): T1 sequence (P04632 1-268 partner)
Experimental: as §1

[4] = tested on: Calpain activity in SH-SY5Y cells; test: SH-SY5Y spectrin breakdown product (SBDP-150) western blot assay; format: cell-based; conditions: Homo sapiens; SH-SY5Y cells, 25 uM A23187, SBDP-150 western blot; read-out: SH-SY5Y Spectrin IC50
[5] = tested on: Calpain activity in SH-SY5Y cells; test: SH-SY5Y Suc-LLVY-AMC fluorescence assay; format: cell-based; conditions: Homo sapiens; SH-SY5Y cells, 100 uM Suc-LLVY-AMC; read-out: SH-SY5Y + AMC IC50

Compound	IC50 [1] [µM]	IC50 [2] [µM]	IC50 [3] [µM]	IC50 [4] [µM]	IC50 [5] [µM]
Cn1cc(C(=O)NC(Cc2ccccc2)C(=O)C(N)=O)c(-c2cccc3[nH]ncc23)n1 (stereo not drawn) [Compound 16, N-(4-AMINO-3,4-DIOXO-1-PHENYLBUTAN-2-YL)-3-(1H-INDAZOL-4-YL)-1-METHYL-1H-PYRAZOLE-4-CARBOXAMIDE]	< 3	< 3	< 3	10 to 25	10 to 25
NC(=O)C(=O)C(Cc1ccccc1)NC(=O)c1cn(C(F)F)nc1-c1ccoc1Cl (stereo not drawn) [Compound 20, N-(4-AMINO-3,4-DIOXO-1-PHENYLBUTAN-2-YL)-3-(2-CHLOROFURAN-3-YL)-1-(DIFLUOROMETHYL)-1H-PYRAZOLE-4-CARBOXAMIDE]	< 3	< 3	< 3	< 10	< 10
Cc1cc(C(=O)NC(Cc2ccccc2)C(=O)C(N)=O)n(-c2ncc3ccccc3n2)n1 (stereo not drawn) [Compound 11, N-(4-AMINO-3,4-DIOXO-1-PHENYLBUTAN-2-YL)-3-METHYL-1-(QUINAZOLIN-2-YL)-1H-PYRAZOLE-5-CARBOXAMIDE]	< 3	< 3	< 3	10 to 25	< 10
Cn1ncc2cccc(-c3nn(C(F)F)cc3C(=O)NC(Cc3ccccc3)C(=O)C(N)=O)c21 (stereo not drawn) [Compound 34, N-(4-AMINO-3,4-DIOXO-1-PHENYLBUTAN-2-YL)-1-(DIFLUOROMETHYL)-3-(1-METHYL-1H-INDAZOL-7-YL)-1H-PYRAZOLE-4-CARBOXAMIDE]	< 3	< 3	< 3	10 to 25	< 10
NC(=O)C(=O)C(Cc1ccccc1)NC(=O)c1cnoc1-c1cccc2c1OC(F)(F)O2 (stereo not drawn) [Compound 8, N-(4-AMINO-3,4-DIOXO-1-PHENYLBUTAN-2-YL)-5-(2,2-DIFLUOROBENZO[d][1,3]DIOXOL-4-YL)ISOXAZOLE-4-CARBOXAMIDE]	< 3	< 3	< 3	10 to 25	> 25
NC(=O)C(=O)C(Cc1ccccc1)NC(=O)c1cn(C(F)F)nc1-c1cnc2ccccc2n1 (stereo not drawn) [Compound 25, N-(4-AMINO-3,4-DIOXO-1-PHENYLBUTAN-2-YL)-1-(DIFLUOROMETHYL)-3-(QUINOXALIN-2-YL)-1H-PYRAZOLE-4-CARBOXAMIDE]	< 3	< 3	< 3	10 to 25	

Next, values leading:

IC50 [1] [µM]	IC50 [2] [µM]	IC50 [3] [µM]	IC50 [4] [µM]	IC50 [5] [µM]	Compound
< 3	< 3	< 3	< 10	< 10	NC(=O)C(=O)C(Cc1ccccc1)NC(=O)c1cn(C(F)F)nc1-c1cccc2ocnc12 (stereo not drawn) [Compound 71, N-(4-AMINO-3,4-DIOXO-1-PHENYLBUTAN-2-YL)-3-(BENZO[D]OXAZOL-4-YL)-1-(DIFLUOROMETHYL)-1H-PYRAZOLE-4-CARBOXAMIDE]
< 3	< 3	< 3	> 25	< 10	Cc1cc(-c2nn(C)cc2C(=O)NC(Cc2ccccc2)C(=O)C(N)=O)c(C)o1 (stereo not drawn) [Compound 55, N-(4-AMINO-3,4-DIOXO-1-PHENYLBUTAN-2-YL-3-(2,5-DIMETHYLFURAN-3-YL)-1-METHYL-1H-PYRAZOLE-4-CARBOXAMIDE]
< 3	< 3	< 3	10 to 25	< 10	Cc1cc(-c2nc(C)oc2C(=O)NC(Cc2ccccc2)C(=O)C(N)=O)c(C)o1 (stereo not drawn) [Compound 78, N-(4-AMINO-3,4-DIOXO-1-PHENYLBUTAN-2-YL)-4-(2,5-DIMETHYLFURAN-3-YL)-2-METHYLOXAZOLE-5-CARBOXAMIDE]
< 3	< 3	< 3	10 to 25		Cn1cc2cccc(-c3nn(C(F)F)cc3C(=O)NC(Cc3ccccc3)C(=O)C(N)=O)c2n1 (stereo not drawn) [Compound 77, N-(4-AMINO-3,4-DIOXO-1-PHENYLBUTAN-2-YL)-1-(DIFLUOROMETHYL)-3-(2-METHYL-2H-INDAZOL-7-YL)-1H-PYRAZOLE-4-CARBOXAMIDE]
